The source of these data is patent US10017506B2, “ATX modulating agents” (BIOGEN MA INC., priority 2012, dated 2018).

In the test the target is T1, Human ATX protein (Homo sapiens, UniProt Q13822).
T1 construct: made in house
Briefly: ATX biochemical FRET assay with FS-3 substrate. Conditions: FRET substrate FS-3 2 μM, ATX 1.0 μg/mL, 30 minutes pre-incubation, 2 hours at room temperature; read-out: IC50. The method in brief: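 Enzyme at 1.0 μg/mL final, pre-incubated with compound (10-point, 3-fold series) for 30 min at RT in Tris pH 7.4 buffer with NaCl, KCl, CaCl2, MgCl2 and 1 mg/mL fatty-acid-free BSA. After FS-3 addition, 2 h at RT protected from light; fluorescence at 485/538 nm.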

On to `CC(N[C@H]1C[C@@H](C(=O)O)C1)c1ccc2ccc(O[C@H]3CC[C@@H](C)CC3)c(C(F)(F)F)c2c1` (stereo partly drawn) [Example 110, cis-3-((1-(7-((cis-4-methylcyclohexyl)oxy)-8-(trifluoromethyl)naphthalen-2-yl)ethyl)amino)cyclobutanecarboxylic acid], for which the IC50 is at most 0.5 µM. For `CC(N[C@@H]1C[C@H](C(=O)O)C1(C)C)c1ccc2ccc(O[C@H]3CC[C@@H](C)CC3)c(C(F)(F)F)c2c1` (stereo partly drawn) [Example 112, (1S,3R)-2,2-dimethyl-3-((1-(7-((cis-4-methylcyclohexyl)oxy)-8-(trifluoromethyl)naphthalen-2-yl)ethyl)amino)cyclobutanecarboxylic acid] the value was at most 0.1 µM; for `CC(N[C@H]1C[C@@H](C(=O)O)C1(C)C)c1ccc2ccc(O[C@H]3CC[C@@H](C)CC3)c(C(F)(F)F)c2c1` (stereo partly drawn) [Example 113, (1R,3S)-2,2-dimethyl-3-((1-(7-((cis-4-methylcyclohexyl)oxy)-8-(trifluoromethyl)naphthalen-2-yl)ethyl)amino)cyclobutanecarboxylic acid], at most 0.1 µM; for `C[C@H](N[C@H]1C[C@@H](C(=O)O)C1(C)C)c1ccc2ccc(O[C@H]3CC[C@@H](C)CC3)c(C(F)(F)F)c2c1` [Example 114b, (1R,3S)-2,2-dimethyl-3-(((S)-1-(7-((cis-4-methylcyclohexyl)oxy)-8-(trifluoromethyl)naphthalen-2-yl)ethyl)amino)cyclobutanecarboxylic acid], at most 0.1 µM. Take `C[C@@H](N[C@H]1C[C@H](C(=O)O)C1(C)C)c1ccc2ccc(O[C@H]3CC[C@@H](C)CC3)c(C(F)(F)F)c2c1` [Example 114c, (1S,3S)-2,2-dimethyl-3-(((R)-1-(7-((cis-4-methylcyclohexyl)oxy)-8-(trifluoromethyl)naphthalen-2-yl)ethyl)amino)cyclobutanecarboxylic acid]: the IC50 is at most 0.1 µM.

With `C[C@@H](N[C@H]1C[C@@H](C(=O)O)C1(C)C)c1ccc2ccc(O[C@H]3CC[C@@H](C)CC3)c(C(F)(F)F)c2c1` [Example 114d, (1R,3S)-2,2-dimethyl-3-(((R)-1-(7-((cis-4-methylcyclohexyl)oxy)-8-(trifluoromethyl)naphthalen-2-yl)ethyl)amino)cyclobutanecarboxylic acid], the IC50 was at most 0.5 µM. With `CC[C@H]1CC[C@@H](Oc2ccc3ccc(C(C)N[C@@H]4C[C@H](C(=O)O)C4(C)C)cc3c2C(F)(F)F)CC1` (stereo partly drawn) [Example 115, (1S,3R)-3-((1-(7-((cis-4-ethylcyclohexyl)oxy)-8-(trifluoromethyl)naphthalen-2-yl)ethyl)amino)-2,2-dimethylcyclobutanecarboxylic acid], the IC50 was at most 0.1 µM. For `CC[C@H]1CC[C@@H](Oc2ccc3ccc(C(C)N[C@H]4C[C@@H](C(=O)O)C4(C)C)cc3c2C(F)(F)F)CC1` (some centres unmarked) [Example 116] the value was at most 0.1 µM.

`CC[C@H]1CC[C@@H](Oc2ccc3ccc([C@H](C)N[C@@H]4C[C@H](C(=O)O)C4(C)C)cc3c2C(F)(F)F)CC1` [Example 117b, (1S,3R)-3-(((S)-1-(7-((cis-4-ethylcyclohexyl)oxy)-8-(trifluoromethyl)naphthalen-2-yl)ethyl)amino)-2,2-dimethylcyclobutanecarboxylic acid]: the half-inhibitory concentration (IC50) is at most 0.1 µM. For `CC[C@H]1CC[C@@H](Oc2ccc3ccc([C@@H](C)N[C@@H]4C[C@@H](C(=O)O)C4(C)C)cc3c2C(F)(F)F)CC1` [Example 117c, (1R,3R)-3-(((R)-1-(7-((cis-4-ethylcyclohexyl)oxy)-8-(trifluoromethyl)naphthalen-2-yl)ethyl)amino)-2,2-dimethylcyclobutanecarboxylic acid] the value was at most 0.1 µM; for `CC[C@H]1CC[C@@H](Oc2ccc3ccc([C@H](C)N[C@H]4C[C@H](C(=O)O)C4(C)C)cc3c2C(F)(F)F)CC1` [Example 118a, (1S,3S)-3-(((S)-1-(7-((cis-4-ethylcyclohexyl)oxy)-8-(trifluoromethyl)naphthalen-2-yl)ethyl)amino)-2,2-dimethylcyclobutanecarboxylic acid], at most 0.5 µM.

In general, IC50 refers to the midpoint of a concentration-inhibition curve.
